Measurements as given in US10676446B2, “Bicyclic quinazolinone derivatives” (Hoffmann-La Roche Inc., priority 2015, dated 2020).

Biological target: human ATX (autotaxin, ENPP2), His-tagged (Homo sapiens (Human), UniProt Q13822)
Test: Human ATX enzyme inhibition assay (fluorescence quenching, MR121 substrate)
Format: biochemical
Details: 30 nM ATX, 1 μM MR121 substrate, 30° C., pH 8.0
Outline: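 His-tagged human ATX (30 nM final) preincubated 15 min at 30 °C with serially diluted compound in Tris-HCl pH 8.0 buffer with Ca2+, Mg2+ and 0.01% Triton X-100. MR121-labelled fluorescence-quenched substrate then added (1 μM final) for a further 15 min at 30 °C; fluorescence read-out.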

Question: For `CN(Cc1ccc(Cl)c(Cl)c1)C(=O)Cn1cnc2ccc(C3CCN(C(=O)C4(O)CC4)CC3)cc2c1=O` [Example 179], which IC50 is on record?
Answer: The IC50 was 156 nM.

Question: For `CN(Cc1ccc(Cl)c(Cl)c1)C(=O)Cn1cnc2ccc(N3CCN(CC4CC4)CC3)cc2c1=O` [Example 104, 2-[6-[4-(Cyclopropylmethyl)piperazin-1-yl]-4-oxoquinazolin-3-yl]-N-[(3,4-dichlorophenyl)methyl]-N-methylacetamide], which IC50 is on record?
Answer: Its IC50 is 64 nM.

Question: With `CC(=O)N1CCN(c2ccc3ncn(CC(=O)NCc4ccc(C#N)cc4F)c(=O)c3c2)CC1` [Example 30] as the compound, how does the IC50 read?
Answer: Its IC50 is 139 nM.

Question: With `COCCOCC(=O)N1CCC(c2ccc3ncn(CC(=O)N(C)Cc4ccc(Cl)c(Cl)c4)c(=O)c3c2)CC1` [Example 166] as the compound, how does the IC50 read?
Answer: Its IC50 is 627 nM.

Question: With `CCN(CC)C(=O)CN1CCN(c2ccc3ncn(CC(=O)N(C)Cc4ccc(Cl)c(Cl)c4)c(=O)c3c2)CC1` [Example 110] as the compound, how does the IC50 read?
Answer: Its IC50 is 34 nM.

Question: Which IC50 does the source give for `CC(=O)N1CCN(c2ccc3ncn(CC(=O)NC(CC(=O)N(C)C)c4ccc(Cl)cc4)c(=O)c3c2)CC1` (stereo not shown) [Example 2] here?
Answer: Its IC50 is 360 nM.

Question: Which IC50 does the source give for `CC(=O)N1CCC(O)(c2ccc3ncn(CC(=O)N(C)Cc4ccc(Cl)c(Cl)c4)c(=O)c3c2)CC1` [Example 184, 2-[6-(1-Acetyl-4-hydroxypiperidin-4-yl)-4-oxoquinazolin-3-yl]-N-[(3,4-dichlorophenyl)methyl]-N-methylacetamide] here?
Answer: Its IC50 is 86 nM.

Question: How did the IC50 turn out when `O=C(Cn1cnc2ccc(N3CCN(CC4CCOC4)CC3)cc2c1=O)NCc1ccc(Cl)c(Cl)c1` (stereo not shown) [Example 97] was run?
Answer: Its IC50 is 4 nM.

Question: With `CN(Cc1ccc(Cl)c(Cl)c1)C(=O)Cn1cnc2ccc(C3CCN(C(=O)C4CCOC4)CC3)cc2c1=O` (stereo not shown) [Example 182] as the compound, how does the IC50 read?
Answer: The IC50 was 8 nM.

Question: `CC(=O)N1CCN(c2ccc3ncn(CC(=O)NCc4ccc(C(F)(F)F)cc4)c(=O)c3c2)CC1` [Example 17] was tested. Which IC50 did it give?
Answer: The IC50 was 137 nM.

Question: Which IC50 does the source give for `CC(=O)N1CCN(c2ccc3ncn(CC(=O)N4CCCC4c4ccc(Cl)cc4)c(=O)c3c2)CC1` (stereo not shown) [Example 47] here?
Answer: Its IC50 is 341 nM.

Question: For `O=C(Cn1cnc2ccc(N3CCN(C(=O)C4CCCCC4)CC3)cc2c1=O)NCc1ccc(Cl)c(Cl)c1` [Example 65], which IC50 is on record?
Answer: The IC50 was 10 nM.

Question: For `COC(=O)N1CCC(c2ccc3ncn(CC(=O)N(C)Cc4ccc(C#N)c(Cl)c4)c(=O)c3c2)CC1` [Example 160, Methyl 4-[3-[2-[(3-chloro-4-cyanophenyl)methyl-methylamino]-2-oxoethyl]-4-oxoquinazolin-6-yl]piperidine-1-carboxylate], which IC50 is on record?
Answer: The IC50 was 158 nM.

Question: How did the IC50 turn out when `CN(Cc1ccc(C#N)c(Cl)c1)C(=O)Cn1cnc2ccc(N3CCN(CC4CCOC4)CC3)cc2c1=O` (stereo not shown) [Example 114, N-[(3-Chloro-4-cyanophenyl)methyl]-N-methyl-2-[4-oxo-6-[4-(oxolan-3-ylmethyl)piperazin-1-yl]quinazolin-3-yl]acetamide] was run?
Answer: The IC50 was 26 nM.

Question: `CC(=O)N1CCC(O)(c2ccc3ncn(CC(=O)N(C)Cc4ccc(C#N)c(Cl)c4)c(=O)c3c2)CC1` [Example 185, 2-[6-(1-Acetyl-4-hydroxypiperidin-4-yl)-4-oxoquinazolin-3-yl]-N-[(3-chloro-4-cyanophenyl)methyl]-N-methylacetamide] was tested. Which IC50 did it give?
Answer: Its IC50 is 125 nM.

Question: `CN(Cc1ccc(Cl)c(Cl)c1)C(=O)Cn1cnc2ccc(N3CCN(C(=O)C4COC4)CC3)cc2c1=O` [Example 79] was tested. Which IC50 did it give?
Answer: Its IC50 is 10 nM.

Question: `COC(=O)CN1CCN(c2ccc3ncn(CC(=O)NCc4ccc(Cl)c(Cl)c4)c(=O)c3c2)CC1` [Example 93, Methyl 2-[4-[3-[2-[(3,4-dichlorophenyl)methylamino]-2-oxoethyl]-4-oxoquinazolin-6-yl]piperazin-1-yl]acetate] was tested. Which IC50 did it give?
Answer: Its IC50 is 29 nM.

Question: With `CN(Cc1ccc(Cl)c(Cl)c1)C(=O)Cn1cnc2ccc(C3CCN(C(=O)C(C)(C)O)CC3)cc2c1=O` [Example 172] as the compound, how does the IC50 read?
Answer: The IC50 was 21 nM.

Question: `COC(=O)CCN(Cc1ccc(Cl)c(Cl)c1)C(=O)Cn1cnc2ccc(N3CCN(C(C)=O)CC3)cc2c1=O` [Example 53, Methyl 3-[[2-[6-(4-acetylpiperazin-1-yl)-4-oxoquinazolin-3-yl]acetyl]-[(3,4-dichlorophenyl)methyl]amino]propanoate] was tested. Which IC50 did it give?
Answer: The IC50 was 18 nM.

Question: `CC(=O)N1CCN(c2ccc3ncn(CC(=O)NC(CC(=O)NCC(C)C)c4ccc(C(F)(F)F)cc4)c(=O)c3c2)CC1` (stereo not shown) [Example 6] was tested. Which IC50 did it give?
Answer: Its IC50 is 979 nM.

Question: With `CC(=O)N1CCN(c2ccc3ncn(CC(=O)NCc4ccc(C#N)cc4)c(=O)c3c2)CC1` [Example 19] as the compound, how does the IC50 read?
Answer: The IC50 was 130 nM.

Question: For `CN(Cc1ccc(Cl)c(Cl)c1)C(=O)Cn1cnc2ccc(C3CCN(C(=O)CS(N)(=O)=O)CC3)cc2c1=O` [Example 165, N-[(3,4-Dichlorophenyl)methyl]-N-methyl-2-[4-oxo-6-[1-(2-sulfamoylacetyl)piperidin-4-yl]quinazolin-3-yl]acetamide], which IC50 is on record?
Answer: Its IC50 is 20 nM.

Question: How did the IC50 turn out when `O=C(Cn1cnc2ccc(N3CCN(S(=O)(=O)C4CCCCC4)CC3)cc2c1=O)NCc1ccc(Cl)c(Cl)c1` [Example 90] was run?
Answer: Its IC50 is 35 nM.

Question: `O=C(Cn1cnc2ccc(N3CCN(Cc4cnc[nH]4)CC3)cc2c1=O)NCc1ccc(Cl)c(Cl)c1` [Example 101] was tested. Which IC50 did it give?
Answer: Its IC50 is 64 nM.

Question: Which IC50 does the source give for `CNC(=O)CCN(Cc1ccc(Cl)c(Cl)c1)C(=O)Cn1cnc2ccc(N3CCN(C(C)=O)CC3)cc2c1=O` [Example 55, 3-[[2-[6-(4-Acetylpiperazin-1-yl)-4-oxoquinazolin-3-yl]acetyl]-[(3,4-dichlorophenyl)methyl]amino]-N-methylpropanamide] here?
Answer: The IC50 was 38 nM.

Question: Which IC50 does the source give for `CC(=O)N1CCN(c2ccc3ncn(CC(=O)NCc4ccc(Cl)cc4Cl)c(=O)c3c2)CC1` [Example 23] here?
Answer: The IC50 was 72 nM.

Question: `CN(Cc1ccc(Cl)c(Cl)c1)C(=O)Cn1cnc2ccc(C3CCN(C(=O)C4CCCO4)CC3)cc2c1=O` (stereo not shown) [Example 180] was tested. Which IC50 did it give?
Answer: The IC50 was 5 nM.

Question: For `CC(C)[C@@H](O)C(=O)N1CCC(c2ccc3ncn(CC(=O)N(C)Cc4ccc(C#N)c(Cl)c4)c(=O)c3c2)CC1` [Example 157], which IC50 is on record?
Answer: Its IC50 is 10 nM.

Question: With `CC(=O)N1CCN(c2ccc3ncn(CC(=O)NCc4cccc([N+](=O)[O-])c4)c(=O)c3c2)CC1` [Example 37] as the compound, how does the IC50 read?
Answer: The IC50 was 73 nM.

Question: `CN(Cc1ccc(C#N)c(Cl)c1)C(=O)Cn1cnc2ccc(C3CCN(C(=O)C4CC(Cl)C4)CC3)cc2c1=O` (stereo not shown) [Example 139] was tested. Which IC50 did it give?
Answer: The IC50 was 18 nM.

Question: With `O=C(Cn1cnc2ccc(N3CCN(CC4CCC4)CC3)cc2c1=O)NCc1ccc(Cl)c(Cl)c1` [Example 96] as the compound, how does the IC50 read?
Answer: The IC50 was 11 nM.

Question: For `CN(Cc1ccc(Cl)c(Cl)c1)C(=O)Cn1cnc2ccc(N3CCN(C(=O)C4CCC4)CC3)cc2c1=O` [Example 73], which IC50 is on record?
Answer: The IC50 was 6 nM.

Question: With `CC(=O)N1CCC(c2ccc3ncn(CC(=O)NCc4cc(Cl)cc(Cl)c4)c(=O)c3c2)CC1` [Example 164] as the compound, how does the IC50 read?
Answer: Its IC50 is 25 nM.

Question: With `CN(Cc1ccc(C#N)c(Cl)c1)C(=O)Cn1cnc2ccc(C3CCN(C(=O)CO[N+](=O)[O-])CC3)cc2c1=O` [Example 186, [2-[4-[3-[2-[(3-Chloro-4-cyanophenyl)methyl-methylamino]-2-oxoethyl]-4-oxoquinazolin-6-yl]piperidin-1-yl]-2-oxoethyl]nitrate] as the compound, how does the IC50 read?
Answer: The IC50 was 4 nM.

Question: How did the IC50 turn out when `CNC(=O)CC(NC(=O)Cn1cnc2ccc(N3CCN(C(C)=O)CC3)cc2c1=O)c1ccc(Cl)c(Cl)c1` (stereo not shown) [Example 52, 3-[[2-[6-(4-Acetylpiperazin-1-yl)-4-oxoquinazolin-3-yl]acetyl]amino]-3-(3,4-dichlorophenyl)-N-methylpropanamide] was run?
Answer: Its IC50 is 72 nM.

Question: For `CN(Cc1ccc(Cl)c(Cl)c1)C(=O)Cn1cnc2ccc(N3CCN(S(=O)(=O)C4CC4)CC3)cc2c1=O` [Example 91], which IC50 is on record?
Answer: The IC50 was 30 nM.

Question: With `CN(Cc1ccc(Cl)c(C#N)c1)C(=O)Cn1cnc2ccc(N3CCN(CC4CCOC4)CC3)cc2c1=O` (stereo not shown) [Example 115, N-[(4-Chloro-3-cyanophenyl)methyl]-N-methyl-2-[4-oxo-6-[4-(oxolan-3-ylmethyl)piperazin-1-yl]quinazolin-3-yl]acetamide] as the compound, how does the IC50 read?
Answer: The IC50 was 29 nM.
